# Test results taken from US12116343B2, “Inhibitors of APOL1 and methods of using same” (Vertex Pharmaceuticals Incorporated, priority 2020, dated 2024).
# Target: T1, APOL1 G1 Protein (Homo sapiens, UniProt O14791, I384M/S342G)
# T1 sequence (O14791 28-398 S342G/I384M): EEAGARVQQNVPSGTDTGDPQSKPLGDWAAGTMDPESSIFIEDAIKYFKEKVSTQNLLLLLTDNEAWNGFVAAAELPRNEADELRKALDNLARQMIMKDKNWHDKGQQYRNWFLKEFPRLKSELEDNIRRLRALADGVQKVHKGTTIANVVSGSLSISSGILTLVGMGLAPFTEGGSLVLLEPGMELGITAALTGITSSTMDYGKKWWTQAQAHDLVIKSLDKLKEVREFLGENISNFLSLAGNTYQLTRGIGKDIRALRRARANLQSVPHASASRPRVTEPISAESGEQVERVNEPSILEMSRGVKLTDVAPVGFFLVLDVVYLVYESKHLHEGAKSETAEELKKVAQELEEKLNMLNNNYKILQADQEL
# Test: Trypanosoma brucei brucei lysis assay using APOL1 recombinant protein (AlamarBlue viability)
# Assay type: cell-based
# Settings: Trypanosoma brucei brucei lysis, recombinant APOL1, AlamarBlue; read-out: Trypanosoma Assay (IC50)
# Description: Trypanosoma brucei brucei is a blood stream parasite to which human, gorillas and baboon are immune due to the presence of the APOL1 protein in their HDL particles. The protein is uptaken by the parasite via the TbHpHb receptor located in its flagellar pocket and is bonded by the Hpr protein contained in the HDL particles which triggers the receptor endocytosis by the parasite.
# Following endocytosis, the formed vesicle containing the HDL particle matures from early to late endosome, and subsequently to lysosome. The concomitant pH change in the lumen of the vesicle triggers the insertion of the APOL1 protein into the membrane of the late endosome/lysosome and hereby triggers lysosomal membrane premeabilisation and as a further downstream event, trypanosome lysis. Trypanosoma brucei brucei is sensitive to lysis by all three APOL1 variants (G0, G1, and G2).
# The Trypanosoma brucei brucei lysis assay is a lysis assay of the parasite using recombinant APOL1 protein variant followed by a fluorescent detection method of viability by the addition of AlamarBlue reagent to the assay well, a general metabolic redox indicator (AlamarBlue assay).
# Briefly, the AlamarBlue active compound, the resazurin, a blue, water soluble, non-toxic and cell permeable molecule, which can be followed by absorbance, is reduced by various metabolic pathways into resorufin, a red compound which can be followed by either absorbance or fluorescence. The assay allows the calculation of the percent viability (percent of living Trypanosomes remaining in each well) at the end of a lysis relative to the untreated condition by interpolation of fluorescent values (FLU) on a standard curve with a known amount of seeded trypanosome/well.
# Trypanosoma brucei brucei (ATCC, Cat. No. PRA-382) • Lister 427 VSG 221 bloodstream form.
# Thaw/Expansion Media (ATCC Medium 2834 Modified HMI-9 Medium)
# Assay Media (No Phenol Red/No FBS): Make on Day of Use
# Hypoxanthine Stock (100×)-9 (10×)
# Equipment • El-Clip Tip pipette 12 channel adjustable 2-125 μL, Cat. No. 4672070BT • ThermoFisher MultiDrop 384, Cat. No. 5840300 • Multidrop • Agilent Bravo, Cat. No. G5409A • Bravo • SpectraMax M5
# Assay Ready Plates (ARPs) • ARPs comes in two formats: • […] final top concentration with a 2.5 fold dilution down. • […] final top concentration with a 3 fold dilution down. • Both have a 10 point Dose response. • 0.1% DMSO final in the Black Assay Plate. • Compounds are diluted 1000 fold in the Black Assay Plate. • Each plate is designed for 14 compounds in duplicate. • In the final Black Assay Plate:
# Trypanosoma brucei brucei Culture
# Step 2, Day 4 • Centrifuge at 800×g for 5 minutes at room temperature. • Resuspend in 1 mL media. • Make a 1:25 fold dilution (10 μL/240 μL media). • Count on a hemocytometer (after adding parasites). • Let sit for 1-2 minutes for the parasites to settle. • Count should be approximately 100 viable motile parasites/16 grid or approximately 25×10^6 parasites/flask. • Passage the parasites by adding 1×10^6 parasites/T75 flask in 20 mL media. • Passage the parasites by adding 2.33×10^6 parasites/T175 flask in 46.6 mL media. • For every T75 flask should make enough for approximately 1.5×384 well assay plates. • For every T175 flask should make enough for approximately 3.8×384 well assay plates.
# Step 3, Day 6 • Centrifuge at 800×g for 5 minutes. • Resuspend in 3 mL assay media (No phenol red, no FBS) per 75 starting flask. • Resuspend in 7 mL assay media (No phenol red, no FBS) per 175 flask • Make a 1:25 fold dilution. • Count by hemocytometer. • Every T75 flask set up should have approximately 75×10^6 parasites/flask (verify doubling time=8.7 hrs±1 hr). • Every T175 flask set up should have approximately 175×10^6 parasites/flask (verify doubling time=8.7 hrs±1 hr). • Require 46×10^6 parasites per 384 well plate (at 120,000 parasites per well). Protocol B […]
row,SMILES,IC50
1,O=C([C@H]1C[C@H](c2c(-c3ccc(F)cc3)[nH]c3c(F)cc(F)cc32)C1)N1CCO[C@H](CO)C1 [Compound 118],> 1 µM
2,CN(CC(O)CO)C(=O)[C@H]1C[C@H](c2c(-c3ccc(F)cc3)[nH]c3c(F)cc(F)cc32)C1 (some centres unmarked) [Compound 158],0.25 to 1 µM
3,CN(CC1(CO)CCOCC1)C(=O)[C@H]1C[C@H](c2c(-c3ccc(F)cc3)[nH]c3c(F)cc(F)cc32)C1 [Compound 120],> 1 µM
4,NC(=O)[C@H]1C[C@H](c2c(-c3ccc(F)cc3)[nH]c3c(F)cc(F)cc32)C1 [Compound 169],< 0.25 µM
5,O=C1CCC(NC(=O)[C@H]2C[C@H](c3c(-c4ccc(F)cc4)[nH]c4c(F)cc(F)cc43)C2)C1 (some centres unmarked) [Compound 159],> 1 µM
6,O=C([C@H]1C[C@H](c2c(-c3ccc(F)cc3)[nH]c3c(F)cc(F)cc32)C1)N1C[C@H]2C[C@@]2(CO)C1 [Compound 98],> 1 µM
7,O=C([C@H]1C[C@H](c2c(-c3ccc(F)cc3)[nH]c3c(F)cc(F)cc32)C1)N1C[C@@H]2[C@@H](CO)[C@@H]2C1 [Compound 99],> 1 µM
8,CC(O)CN(CCO)C(=O)[C@H]1C[C@H](c2c(-c3ccc(F)cc3)[nH]c3c(F)cc(F)cc32)C1 (mixture of isomers) [Compound 129],< 0.25 µM
9,CCN(CCO)C(=O)[C@H]1C[C@H](c2c(-c3ccc(F)cc3)[nH]c3c(F)cc(F)cc32)C1 [Compound 124],0.25 to 1 µM
10,CCN(C(=O)[C@H]1C[C@H](c2c(-c3ccc(F)cc3)[nH]c3c(F)cc(F)cc32)C1)C(C)CO (mixture of isomers) [Compound 111],0.25 to 1 µM
11,O=C([C@H]1C[C@H](c2c(-c3ccc(F)cc3)[nH]c3c(F)cc(F)cc32)C1)N1CCCC[C@@H]1CO [Compound 107],0.25 to 1 µM
12,C[C@H]1CN(C(=O)[C@H]2C[C@H](c3c(-c4ccc(F)cc4)[nH]c4c(F)cc(F)cc43)C2)CC[C@@H]1O [Compound 116],> 1 µM
13,O=C([C@H]1C[C@H](c2c(-c3ccc(F)cc3)[nH]c3c(F)cc(F)cc32)C1)N1CC(O)C(CO)C1 (some centres unmarked) [Compound 138],0.25 to 1 µM
14,O=C(O)CNC(=O)[C@H]1C[C@H](c2c(-c3ccc(F)cc3)[nH]c3c(F)cc(F)cc32)C1 [Compound 10],> 1 µM
15,O=C([C@H]1C[C@H](c2c(-c3ccc(F)cc3)[nH]c3c(F)cc(F)cc32)C1)N1CCC[C@@H](CO)C1 [Compound 109],> 1 µM
16,CCC1(O)CN(C(=O)[C@H]2C[C@H](c3c(-c4ccc(F)cc4)[nH]c4c(F)cc(F)cc43)C2)C1 [Compound 112],> 1 µM
17,CC1(C)CN(C(=O)[C@H]2C[C@H](c3c(-c4ccc(F)cc4)[nH]c4c(F)cc(F)cc43)C2)CC1O (some centres unmarked) [Compound 102],> 1 µM
18,O=C([C@H]1C[C@H](c2c(-c3ccc(F)cc3)[nH]c3c(F)cc(F)cc32)C1)N1CCCC[C@H]1CO [Compound 146],0.25 to 1 µM

row,SMILES,IC50
1,CC(CO)N1CCN(C(=O)[C@H]2C[C@H](c3c(-c4ccc(F)cc4)[nH]c4c(F)cc(F)cc43)C2)CC1 (mixture of isomers) [Compound 122],> 1 µM
2,O=C(NCC1(O)CCC1)[C@H]1C[C@H](c2c(-c3ccc(F)cc3)[nH]c3c(F)cc(F)cc32)C1 [Compound 143],> 1 µM
3,CN1CCC(NC(=O)[C@H]2C[C@H](c3c(-c4ccc(F)cc4)[nH]c4c(F)cc(F)cc43)C2)C1=O (some centres unmarked) [Compound 7],0.25 to 1 µM
4,O=C([C@H]1C[C@H](c2c(-c3ccc(F)cc3)[nH]c3c(F)cc(F)cc32)C1)N1CCC2(COC2)C1 [Compound 103],> 1 µM
5,O=C([C@H]1C[C@H](c2c(-c3ccc(F)cc3)[nH]c3c(F)cc(F)cc32)C1)N1CCC[C@H](O)C1 [Compound 105],0.25 to 1 µM
6,CO[C@H]1CCN(C(=O)[C@H]2C[C@H](c3c(-c4ccc(F)cc4)[nH]c4c(F)cc(F)cc43)C2)C1 [Compound 95],> 1 µM
7,O=C([C@H]1C[C@H](c2c(-c3ccc(F)cc3)[nH]c3c(F)cc(F)cc32)C1)N1CC2(CC(O)C2)C1 [Compound 137],> 1 µM
8,O=C([C@H]1C[C@H](c2c(-c3ccc(F)cc3)[nH]c3c(F)cc(F)cc32)C1)N1CCC(CCO)CC1 [Compound 134],> 1 µM
9,CC(C)N(CCO)C(=O)[C@H]1C[C@H](c2c(-c3ccc(F)cc3)[nH]c3c(F)cc(F)cc32)C1 [Compound 123],0.25 to 1 µM
10,O=C(NCCOCCO)[C@H]1C[C@H](c2c(-c3ccc(F)cc3)[nH]c3c(F)cc(F)cc32)C1 [Compound 125],< 0.25 µM
11,NC(=O)[C@H](CO)NC(=O)[C@H]1C[C@H](c2c(-c3ccc(F)cc3)[nH]c3c(F)cc(F)cc32)C1 [Compound 144],0.25 to 1 µM
12,O=C(NCc1cnco1)[C@H]1C[C@H](c2c(-c3ccc(F)cc3)[nH]c3c(F)cc(F)cc32)C1 [Compound 170],< 0.25 µM
13,O=C([C@H]1C[C@H](c2c(-c3ccc(F)cc3)[nH]c3c(F)cc(F)cc32)C1)N1CCCC[C@@H]1CCO [Compound 156],> 1 µM
14,CCC(O)(CCCO)CNC(=O)[C@H]1C[C@H](c2c(-c3ccc(F)cc3)[nH]c3c(F)cc(F)cc32)C1 (some centres unmarked) [Compound 119],> 1 µM
15,NC(=O)[C@@H]1CCN(C(=O)[C@H]2C[C@H](c3c(-c4ccc(F)cc4)[nH]c4c(F)cc(F)cc43)C2)C1 [Compound 135],> 1 µM
16,CN(C)C[C@@H]1CCN(C(=O)[C@H]2C[C@H](c3c(-c4ccc(F)cc4)[nH]c4c(F)cc(F)cc43)C2)C[C@H]1O [Compound 110],0.25 to 1 µM
17,O=C(N[C@@H](CO)C(F)(F)F)[C@H]1C[C@H](c2c(-c3ccc(F)cc3)[nH]c3c(F)cc(F)cc32)C1 [Compound 163],< 0.25 µM
